Columns and labels:
[1] = test system: Staphylococcus epidermidis; assay: Microbial colonization of reconstructed layered human epidermis, live count; format: cell-based; details: 24±2 h
Experimental: (§1) Primary adult human skin fibroblasts were embedded in fibrin matrix to produce dermal equivalent. The dermal equivalent was cultured to allow fibroblasts to reconstruct matrix. Primary neonatal human keratinocytes were applied on the surface of dermal equivalent and cultured in liquid for 48 hours. Culture was carried out on the air-liquid interface (ALI) until a layered epidermis was formed.
(§2) Staphylococcus epidermidis, Corynebacterium spp., Cutibacterium spp., Propionibacterium acnes and Malassezia were cultured in proper culture medium and incubation conditions (37±2° C., 5±1% (v/v) CO2, ≥95% RH). Inoculation buffer (GS25) was used to prepare inoculum containing about 1.1×10^6 cfu mL^−1 microbial flora of the above bacteria. 10 μL of the mixture was used for skin (layered epidermis) colonization, and each unit was colonized with about 10^4 cfu·cm^−2 of each bacterium. After that, the layered epidermis was incubated at 37±2° C., 5±1% (v/v) CO2, ≥95% RH for 3±1 hours.
(§3) α-Glucan Oligosaccharide (α-GO for short) is a famous prebiotic, which can protect skin health by maintaining the balance of microbial population and strengthening the microbial barrier of skin, so the experiment took it as a control. Control (α-GO, 1 μM) and EGT (0 μM, 0.1 μM, 1 μM, 10 μM, 100 μM, 1000 μM) were applied on the layered epidermis respectively, and then incubated for 24±2 hours at 37±2° C., 5±1% (v/v) CO2 and ≥95% RH. Then, the above five kinds of microorganisms were counted respectively to evaluate the inhibitory effect of α-GO and EGT on microbial growth: 8 mm live tissue slices were taken from layered epidermis, and the number of live bacteria (cfu·cm^−2) was evaluated by incubation on appropriate selective solid medium. The choice of solid medium is based on the characteristics of microorganisms themselves.

[2] = test system: Corynebacterium spp.; assay: as above; format: cell-based; details: 24±2 h
Experimental: as §1, §2, §3

[3] = test system: Propionibacterium acnes; assay: as above; format: cell-based; details: 24±2 h
Experimental: as §1, §2, §3

[4] = test system: Malassezia; assay: as above; format: cell-based; details: 24±2 h
Experimental: as §1, §2, §3

[5] = test system: Cutibacterium spp.; assay: as above; format: cell-based; details: 24±2 h
Experimental: as §1, §2, §3

[6] = Elasticity, moisture and desquamation of skin of subjects after applying EGT base cream; format: in vivo, human; details: once a day for 4 weeks, day 28
Experimental: (§4) Thirty healthy women aged 20-59 were randomly divided into three groups. The first group (0% EGT, n=10) was applied with pure base cream as the control group, the second group (5% EGT, n=10) was applied with base cream mixed with 5% ergothioneine, and the third group (10% EGT, n=10) was applied with base cream mixed with 10% ergothioneine. The applying was performed once a day for 4 weeks. Skin microorganisms were collected on the 0 th and 28 th days respectively, and the elasticity, moisture and desquamation of the skin of the subjects were measured on the 28 th day. Sterile water was used to wash Participants' faces and then applied on solid trypsin soy agar (TSA) medium. Individual colonies were collected and cultured in liquid trypsin soy broth (TSB) medium at 37° C. for 72 hours.

[7] = test system: Streptococcus; assay: Relative abundance of Streptococcus in skin of subjects after applying EGT base cream (16S rRNA); format: in vivo, human; details: once a day for 4 weeks
Experimental: as §4
Each sample was centrifuged and the precipitate was collected, and the microbial DNA in the precipitate was extracted with a specific kit. The purity and quantity of DNA were measured by spectrophotometer. The 16S rRNA gene of bacteria was amplified with the following primers: forward, 5′-[…]-3′ (SEQ ID NO: 1); reverse, 5′-[…]-3′ (SEQ ID NO: 2). PCR was carried out in a 25 μL reactor, which contained 2 μL genomic DNA (10 ng/μL), 0.5 μL primers (10 μM), 12.5 μL 2×KAPA HiFi HotStart Ready Mix and 9.5 μL distilled water. […]

[8] = EGT 0.1-1000 μM, effect more significant with increasing concentration

C[N+](C)(C)[C@@H](Cc1c[nH]c(=S)[nH]1)C(=O)[O-] [EGT, Ergothioneine]
colonization of Staphylococcus epidermidis in the layered epidermis (live bacteria count) [1, 8]: obviously inhibited | inhibitory effect on Staphylococcus epidermidis compared with α-GO ([1]; same concentration (1 μM)): better inhibitory effect | colonization of Corynebacterium spp. in the layered epidermis (live bacteria count) [2, 8]: obviously inhibited | inhibitory effect on Corynebacterium spp. compared with α-GO ([2]; same concentration (1 μM)): better inhibitory effect | colonization of Propionibacterium acnes in the layered epidermis (live bacteria count) [3, 8]: obviously inhibited | inhibitory effect on Propionibacterium acnes compared with α-GO ([3]; same concentration (1 μM)): better inhibitory effect | colonization of Malassezia in the layered epidermis (live count) [4, 8]: obviously inhibited | inhibitory effect on Malassezia compared with α-GO ([4]; same concentration (1 μM)): better inhibitory effect | colonization of Cutibacterium spp. in the layered epidermis (live bacteria count) [5, 8]: obviously inhibited | inhibitory effect on Cutibacterium spp. compared with α-GO ([5]; same concentration (1 μM)): better inhibitory effect | increase of skin elasticity compared with 0% EGT group ([6]; 10% EGT base cream): about 20% | increase of skin moisture compared with 0% EGT group ([6]; 10% EGT base cream): about 45% | reduction of desquamation compared with 0% EGT group ([6]; 10% EGT base cream): about 30% | skin desquamation ([6]; EGT base cream (5% and 10%)): avoid the problem of skin desquamation | skin elasticity ([6]; EGT base cream (5% and 10%)): significantly increase | skin moisture ([6]; EGT base cream (5% and 10%)): significantly increase | effect on relative abundance of Streptococcus, 10% EGT group compared with 5% EGT ([7]; 10% EGT base cream): more obvious | relative abundance (RA) of Streptococcus in skin vs pure base cream group ([7]; EGT base cream (5% and 10%), healthy women): more abundant

From patent US20250312314A1, “METHOD AND COMPOSITION FOR IMPROVING OR MAINTAINING SKIN HEALTH OF MAMMALS” (NANJING NUTRABUILDING BIO-TECH CO., LTD., priority 2022, published 2025)
